Results from patent US10485235B2, “Aryloxypyrimidinyl ethers as herbicides” (FMC Corporation, priority 2015, dated 2019).

Legend:
Format in all cases: in vivo
[1] = tested on: barnyardgrass (Echinochloa crus-galli); assay: Test A preemergence, barnyardgrass; conditions: Preemergence, 0 to 100 scale (0 no effect, 100 complete control)
Method in brief: (§1)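 Pre- and postemergence greenhouse screen in loam–sand soil. Test chemicals were delivered in a non-phytotoxic solvent with surfactant, preemergence as a directed spray onto seeded soil and postemergence onto 2–10 cm seedlings. Injury was judged by eye after ~10 days on a 0–100 scale.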

kochia (Kochia scoparia) [2] = assay: Test A preemergence, kochia; conditions: Preemergence, 0 to 100 scale (0 no effect, 100 complete control)
Method in brief: as §1

[3] = tested on: ragweed (common ragweed, Ambrosia elatior); assay: Test A preemergence, ragweed; conditions: Preemergence, 0 to 100 scale (0 no effect, 100 complete control)
Method in brief: as §1

[4] = tested on: ryegrass, Italian (Italian ryegrass, Lolium multiflorum); assay: Test A preemergence, Italian ryegrass; conditions: Preemergence, 0 to 100 scale (0 no effect, 100 complete control)
Method in brief: as §1

[5] = tested on: foxtail, giant (giant foxtail, Setaria faberii); assay: Test A preemergence, giant foxtail; conditions: Preemergence, 0 to 100 scale (0 no effect, 100 complete control)
Method in brief: as §1

[6] = tested on: pigweed (Amaranthus retroflexus); assay: Test A preemergence, pigweed; conditions: Preemergence, 0 to 100 scale (0 no effect, 100 complete control)
Method in brief: as §1

[7] = tested on: barnyardgrass (Echinochloa crus-galli); assay: Test A postemergence, barnyardgrass; conditions: postemergence, 0 to 100 scale, 0 is no effect, 100 is complete control, approximately 10 days
Method in brief: as §1

kochia (Kochia scoparia) [8] = assay: Test A postemergence, kochia; conditions: postemergence, 0 to 100 scale, 0 is no effect, 100 is complete control, approximately 10 days
Method in brief: as §1

[9] = tested on: ragweed (common ragweed, Ambrosia elatior); assay: Test A postemergence, ragweed; conditions: postemergence, 0 to 100 scale, 0 is no effect, 100 is complete control, approximately 10 days
Method in brief: as §1

[10] = tested on: ryegrass, Italian (Italian ryegrass, Lolium multiflorum); assay: Test A postemergence, Italian ryegrass; conditions: postemergence, 0 to 100 scale, 0 is no effect, 100 is complete control, approximately 10 days
Method in brief: as §1

[11] = tested on: foxtail, giant (giant foxtail, Setaria faberii); assay: Test A postemergence, giant foxtail; conditions: postemergence, 0 to 100 scale, 0 is no effect, 100 is complete control, approximately 10 days
Method in brief: as §1

[12] = tested on: pigweed (Amaranthus retroflexus); assay: Test A postemergence, pigweed; conditions: postemergence, 0 to 100 scale, 0 is no effect, 100 is complete control, approximately 10 days
Method in brief: as §1

[13] = tested on: wheat (Triticum aestivum); assay: Test A postemergence, wheat; conditions: postemergence, 0 to 100 scale, 0 is no effect, 100 is complete control, approximately 10 days
Method in brief: as §1

corn (Zea mays) = assay: Test A postemergence, corn; conditions: postemergence, 0 to 100 scale, 0 is no effect, 100 is complete control, approximately 10 days
Method in brief: as §1

[14] = tested on: blackgrass (Alopecurus myosuroides); assay: Test A postemergence, blackgrass; conditions: postemergence, 0 to 100 scale, 0 is no effect, 100 is complete control, approximately 10 days
Method in brief: as §1

[15] = tested on: galium (catchweed bedstraw, Galium aparine); assay: Test A postemergence, galium; conditions: postemergence, 0 to 100 scale, 0 is no effect, 100 is complete control, approximately 10 days
Method in brief: as §1

rice (Oryza sativa) = assay: Test B flooded paddy test, rice; conditions: 250 g ai/ha, Flood; visual rating after 13 to 15 days; scale 0 to 100, 0 is no effect, 100 is complete control
Method in brief: (§2)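 Visual ratings, 0 = no effect to 100 = complete control, versus controls after 13 to 15 days in greenhouse. Test compounds were added to paddy water kept 3 cm over the soil surface, on plants at 2-leaf stage.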

[16] = tested on: sedge, umbrella (small-flower umbrella sedge, Cyperus difformis); assay: Test B flooded paddy test, umbrella sedge; conditions: 250 g ai/ha, Flood; visual rating after 13 to 15 days; scale 0 to 100, 0 is no effect, 100 is complete control
Method in brief: as §2

[17] = tested on: ducksalad (Heteranthera limosa); assay: Test B flooded paddy test, ducksalad; conditions: 250 g ai/ha, Flood; visual rating after 13 to 15 days; scale 0 to 100, 0 is no effect, 100 is complete control
Method in brief: as §2

[18] = tested on: barnyardgrass (Echinochloa crus-galli); assay: Test B flooded paddy test, barnyardgrass; conditions: 250 g ai/ha, Flood; visual rating after 13 to 15 days; scale 0 to 100, 0 is no effect, 100 is complete control
Method in brief: as §2

Structure (SMILES) | Plant response rating, Barnyardgrass ([1]; 31 g ai/ha) | Plant response rating, Barnyardgrass ([1]; 125 g ai/ha) | Plant response rating, Kochia (kochia (Kochia scoparia) [2]; 31 g ai/ha) | Plant response rating, Kochia (kochia (Kochia scoparia) [2]; 125 g ai/ha) | Plant response rating, Ragweed ([3]; 31 g ai/ha) | Plant response rating, Ragweed ([3]; 125 g ai/ha) | Plant response rating, Ryegrass, Italian ([4]; 31 g ai/ha) | Plant response rating, Ryegrass, Italian ([4]; 125 g ai/ha) | Plant response rating, Foxtail, Giant ([5]; 31 g ai/ha) | Plant response rating, Foxtail, Giant ([5]; 125 g ai/ha) | Plant response rating, Pigweed ([6]; 31 g ai/ha) | Plant response rating, Pigweed ([6]; 125 g ai/ha) | Plant response rating, Barnyardgrass ([7]; 31 g ai/ha) | Plant response rating, Barnyardgrass ([7]; 125 g ai/ha) | Plant response rating, Kochia (kochia (Kochia scoparia) [8]; 31 g ai/ha) | Plant response rating, Kochia (kochia (Kochia scoparia) [8]; 125 g ai/ha) | Plant response rating, Ragweed ([9]; 31 g ai/ha) | Plant response rating, Ragweed ([9]; 125 g ai/ha) | Plant response rating, Ryegrass, Italian ([10]; 31 g ai/ha) | Plant response rating, Ryegrass, Italian ([10]; 125 g ai/ha) | also measured
O=C(CCC(F)(F)F)COc1c(Br)cccc1Oc1ncc(Cl)cn1 [Compound 56] | 0 | 90 | 0 | 50 | 0 | 0 | 0 | 0 | 0 | 90 | 0 | 80 | 0 | 20 | 0 | 60 | 0 | 0 | 0 | 10 | Plant response rating, Foxtail, Giant ([11]; 31 g ai/ha): 0; Plant response rating, Foxtail, Giant ([11]; 125 g ai/ha): 30; Plant response rating, Pigweed ([12]; 31 g ai/ha): 40; Plant response rating, Pigweed ([12]; 125 g ai/ha): 100; Plant response rating, Wheat ([13]; 31 g ai/ha): 0; Plant response rating, Wheat ([13]; 125 g ai/ha): 20; Plant response rating, Corn (corn (Zea mays); 31 g ai/ha): 10; Plant response rating, Corn (corn (Zea mays); 125 g ai/ha): 30; Plant response rating, Blackgrass ([14]; 31 g ai/ha): 0; Plant response rating, Blackgrass ([14]; 125 g ai/ha): 20; Plant response rating, Galium ([15]; 31 g ai/ha): 10; Plant response rating, Galium ([15]; 125 g ai/ha): 40; Plant response rating, Rice (rice (Oryza sativa)): 30; Plant response rating, Sedge, Umbrella [16]: 75; Plant response rating, Ducksalad [17]: 85; Plant response rating, Barnyardgrass [18]: 0
Cc1cccc(Oc2ncc(Cl)cn2)c1OCCCF [Compound 57] | 0 | 20 | 0 | 20 | 0 | 0 | 0 | 0 | 0 | 30 | 0 | 60 | 0 | 0 | 0 | 20 | 0 | 0 | 0 | 0 | Plant response rating, Foxtail, Giant ([11]; 31 g ai/ha): 0; Plant response rating, Foxtail, Giant ([11]; 125 g ai/ha): 10; Plant response rating, Pigweed ([12]; 31 g ai/ha): 10; Plant response rating, Pigweed ([12]; 125 g ai/ha): 20; Plant response rating, Wheat ([13]; 31 g ai/ha): 0; Plant response rating, Wheat ([13]; 125 g ai/ha): 0; Plant response rating, Corn (corn (Zea mays); 31 g ai/ha): 0; Plant response rating, Corn (corn (Zea mays); 125 g ai/ha): 10; Plant response rating, Blackgrass ([14]; 31 g ai/ha): 0; Plant response rating, Blackgrass ([14]; 125 g ai/ha): 0; Plant response rating, Galium ([15]; 31 g ai/ha): 0; Plant response rating, Galium ([15]; 125 g ai/ha): 0; Plant response rating, Rice (rice (Oryza sativa)): 0; Plant response rating, Sedge, Umbrella [16]: 30; Plant response rating, Ducksalad [17]: 70; Plant response rating, Barnyardgrass [18]: 0
FC(F)(F)CCCOc1c(I)cccc1Oc1ncc(Cl)cn1 [Compound 60] | 20 | 80 | 30 | 40 | 0 | 0 | 0 | 90 | 90 | 90 | 70 | 100 | 30 | 100 | 90 | 90 | 0 | 30 | 0 | 70 | Plant response rating, Foxtail, Giant ([11]; 31 g ai/ha): 30; Plant response rating, Foxtail, Giant ([11]; 125 g ai/ha): 80; Plant response rating, Pigweed ([12]; 31 g ai/ha): 90; Plant response rating, Pigweed ([12]; 125 g ai/ha): 90; Plant response rating, Wheat ([13]; 31 g ai/ha): 0; Plant response rating, Wheat ([13]; 125 g ai/ha): 20; Plant response rating, Corn (corn (Zea mays); 31 g ai/ha): 30; Plant response rating, Corn (corn (Zea mays); 125 g ai/ha): 30; Plant response rating, Blackgrass ([14]; 31 g ai/ha): 30; Plant response rating, Blackgrass ([14]; 125 g ai/ha): 50; Plant response rating, Galium ([15]; 31 g ai/ha): 70; Plant response rating, Galium ([15]; 125 g ai/ha): 100; Plant response rating, Rice (rice (Oryza sativa)): 25; Plant response rating, Sedge, Umbrella [16]: 95; Plant response rating, Ducksalad [17]: 100; Plant response rating, Barnyardgrass [18]: 20
FC(F)(F)/C=C/COc1c(I)cccc1Oc1ncc(Cl)cn1 [Compound 61] | 0 | 20 | 0 | 0 | 0 | 0 | 0 | 0 | 0 | 80 | 0 | 70 | 0 | 50 | 40 | 90 | 0 | 0 | 0 | 0 | Plant response rating, Foxtail, Giant ([11]; 31 g ai/ha): 0; Plant response rating, Foxtail, Giant ([11]; 125 g ai/ha): 30; Plant response rating, Pigweed ([12]; 31 g ai/ha): 80; Plant response rating, Pigweed ([12]; 125 g ai/ha): 90; Plant response rating, Wheat ([13]; 31 g ai/ha): 0; Plant response rating, Wheat ([13]; 125 g ai/ha): 0; Plant response rating, Corn (corn (Zea mays); 31 g ai/ha): 10; Plant response rating, Corn (corn (Zea mays); 125 g ai/ha): 30; Plant response rating, Blackgrass ([14]; 31 g ai/ha): 0; Plant response rating, Blackgrass ([14]; 125 g ai/ha): 0; Plant response rating, Galium ([15]; 31 g ai/ha): 20; Plant response rating, Galium ([15]; 125 g ai/ha): 50; Plant response rating, Rice (rice (Oryza sativa)): 25; Plant response rating, Sedge, Umbrella [16]: 95; Plant response rating, Ducksalad [17]: 100; Plant response rating, Barnyardgrass [18]: 20
N#Cc1cccc(Oc2ncc(Cl)cn2)c1OCC(=O)CCC(F)(F)F [Compound 62] | 0 | 0 | 0 | 0 | 0 | 0 | 0 | 0 | 0 | 0 | 0 | 0 | 0 | 0 | 0 | 0 | 0 | 0 | 0 | 0 | Plant response rating, Foxtail, Giant ([11]; 31 g ai/ha): 0; Plant response rating, Foxtail, Giant ([11]; 125 g ai/ha): 0; Plant response rating, Pigweed ([12]; 31 g ai/ha): 0; Plant response rating, Pigweed ([12]; 125 g ai/ha): 0; Plant response rating, Wheat ([13]; 31 g ai/ha): 0; Plant response rating, Wheat ([13]; 125 g ai/ha): 0; Plant response rating, Corn (corn (Zea mays); 31 g ai/ha): 0; Plant response rating, Corn (corn (Zea mays); 125 g ai/ha): 0; Plant response rating, Blackgrass ([14]; 31 g ai/ha): 0; Plant response rating, Blackgrass ([14]; 125 g ai/ha): 0; Plant response rating, Galium ([15]; 31 g ai/ha): 0; Plant response rating, Galium ([15]; 125 g ai/ha): 0; Plant response rating, Rice (rice (Oryza sativa)): 0; Plant response rating, Sedge, Umbrella [16]: 0; Plant response rating, Ducksalad [17]: 0; Plant response rating, Barnyardgrass [18]: 0
